Values after ≈ are worked out from the molar mass of the structure shown.
Tests used:
microbial growth = conditions: cited from earlier work
[1] = relative to sucrose, baseline 1.0; cited from earlier work
[2] = on the palate; reb-M used alone or substantially alone, compared to established rebaudioside sweeteners including reb-A; cited from earlier work
[3] = Solubility and retention of reb-M in 1,3-propanediol after heating and cooling; type: physicochemical
Protocol: The solvent or liquid base for the sweetener composition may comprise 1,3-propanediol and optionally one or more additional solvents. […] (175° F.) and cooled to room temperature. […] (36° F.).

[4] = room temperature; cited from earlier work

## 1,3-propanediol
Microbial growth
  minimum inhibitory concentration (MIC) compared with other solvents such as glycerin: lower

## O=C(CO)[C@@H](O)[C@H](O)[C@H](O)CO [fructose]
[1]
  sweetness index: approximately 1.7

## C=C1C[C@@]23CC[C@H]4[C@@](C)(CCC[C@@]4(C)C(=O)O[C@@H]4O[C@H](CO)[C@@H](O)[C@H](O)[C@H]4O)[C@@H]2CC[C@]1(O[C@@H]1O[C@H](CO)[C@@H](O)[C@H](O[C@@H]2O[C@H](CO)[C@@H](O)[C@H](O)[C@H]2O)[C@H]1O[C@@H]1O[C@H](CO)[C@@H](O)[C@H](O)[C@H]1O)C3 [reb-A, Rebaudioside A]
[2]
  bitter aftertaste: bitter aftertaste

## C=C1C[C@@]23CC[C@H]4[C@@](C)(CCC[C@@]4(C)C(=O)O[C@@H]4O[C@H](CO)[C@@H](O)[C@H](O[C@@H]5O[C@H](CO)[C@@H](O)[C@H](O)[C@H]5O)[C@H]4O[C@@H]4O[C@H](CO)[C@@H](O)[C@H](O)[C@H]4O)[C@@H]2CC[C@]1(O[C@@H]1O[C@H](CO)[C@@H](O)[C@H](O[C@@H]2O[C@H](CO)[C@@H](O)[C@H](O)[C@H]2O)[C@H]1O[C@@H]1O[C@H](CO)[C@@H](O)[C@H](O)[C@H]1O)C3 [reb-M, rebaudioside-M]
[3]; 1,3-propanediol, organic solvent or mixture, thermodynamic from solid, solvent heated in excess of 80° C. (175° F.) and cooled to room temperature
  solubility: ~795 mg/mL (≈ 616 mM)
[3]; heated 1,3-propanediol solution cooled back to room temperature
  retention in solution on cooling: retained in the solution
[3]; heated 1,3-propanediol solution cooled to approximately 2° C. (36° F.)
  retention in solution on cooling: retained in solution
[4]
  solubility in water: up to 0.1 g per 100 ml water
[2]
  bitter aftertaste: reduced bitterness of aftertaste

## OC[C@H]1O[C@@](CO)(O[C@H]2O[C@H](CO)[C@@H](O)[C@H](O)[C@H]2O)[C@@H](O)[C@@H]1O [sucrose]
[1]
  sweetness index: 1.0

Source: US11825868B2, “Sweetener composition” (Hapy Sweet Bee Ltd, priority 2019, dated 2023)
